Data reported in patent publication US20020072512A1, “Method of preventing and treating HIV-mediated central nervous system damage” (priority 2000, published 2002).

What was measured:
[1] = system: astroglial cells exposed to supernatant of HIV-infected macrophages; assay: Ultrastructural studies (electron microscopy) of astroglial cells; type: cell-based, human; settings: co-incubation, AZT 50 μM; for pro-apoptotic effect of supernatant of HIV-infected M/M on astroglial cell ultrastructure: M40401 10-100 μM, L-NAME 100 μM
Procedure: (§1) The astrocytic cell line Lipari was derived from a patient who presented a large right front-temporal mass (astrocytoma), and grown as previously described (Mollace, V., Colasanti, M., Rodinò, P., Lauro, G. M. & Nisticò, G. (1994b). Biochem. Biophys. Res. Commun. 203, 87-92.). Cells were expanded and cultured by seeding them in 25cm plastic flasks at a density of 0.7×10^6 cells/flask in complete medium, and incubated at 37° C. in humidified air containing 5% CO2.
(§2) A monocytotropic strain of HIV-1, named HIV-1Ba-L was used in all experiments. M/M cultures were exposed to HIV and virus expansion was performed. After 2 hours, virus was removed by washing cultures with warm medium and then cultures of M/M infected by HIV were carried out for further 13-15 days.
(§3) The supernatant of HIV-infected M/M was collected 13 days after virus infection and then incubated for 3 hours with cultured astrocytes. The supernatant of Mock-infected M/M was used as control treatment. […] HIV-p24 antigen production in supernatants of M/M was assesed using a commercially available ELISA Kit (HIV-p24 gag Abbott Lab, Pomezia, Italy).
Cells for electron microscopy were fixed in 2.5% glutaraldehyde in PBS pH7.4 at 4° C. and then washed for 2 hours in PBS and post fixed in osmium tetroxide 1,33% for 2 hours at 4° C. After several washes in PBS, the cells were dehydrated in graded alcohol, transferred into toluene, and embedded in Epon 812 resin. The resin was allowed to polymerize in a dry oven at 60° C. for 24 hours. Thin sections were cut with a glass knife Reichert microtome, stained with Touloidine Blue and examined on Axioscope microscope. Ultra-thin sections were cut on a Reichert microtome using a diamond knife, stained with uranyl-acetate-lead-hydroxide and evaluated and photographed on a Philips electron microscope CM 10 (Philips).

[2] = system: astroglial cells incubated with supernatants of HIV-infected macrophages; assay: Malondialdehyde (MDA) in astroglial cells incubated with supernatants of HIV-infected macrophages; type: cell-based, human; settings: M40401 100 μM, L-NAME 100 μM, AZT 50 μM, MDA in nmol g-1
Procedure: as §1, §2, §3

[3] = system: Lipari astroglial cell line incubated with supernatant of HIV-1 infected macrophages; assay: FACS analysis of apoptotic cell death of astrocytes exposed to supernatant of HIV-infected macrophages; type: cell-based, human; settings: M40401 10-100 μM, L-NAME 100 μM, AZT 50 μM
Procedure: as §1, §2
The supernatant of HIV-infected M/M was collected 13 days after virus infection and then incubated for 3 hours with cultured astrocytes. The supernatant of Mock-infected M/M was used as control treatment. […]
The astrocytic cells either treated or untreated with supernatants of HIV-infected macrophages were gently detached from plastic 8 days after exposure. […] Propidium iodide-stained cells were analysed with a FACScan Flow Cytometer; fluorescence was measured between 565 and 605nm. The data were acquired and analysed by the Lysis II program.

[4] = Reaction with hydrogen peroxide (spectrophotometric or cyclic voltammetric monitoring); type: biochemical; settings: spectrophotometric or electrochemical (cyclic voltammetric) techniques
[5] = Catalytic catalase activity assay using oxygen electrodes; type: biochemical; settings: total oxygen evolved
[6] = same conditions (pH=7.4 and 21° C.); cited from earlier work

| catalytic catalase activity with H2O2 [5] | Structure (SMILES) | pro-apoptotic effect of HIV-infected macrophages on astroglial cell ultrastructure ([1]; FIG. 5, M40401 100 μM) | pro-apoptotic effect of supernatant of HIV-infected M/M on astroglial cell ultrastructure [1] | MDA overproduction (lipid peroxydation) [2] | apoptotic cell death of astroglial cells as evaluated by FACS analysis [3] | stoichiometric reaction with H2O2 [4] | reaction with hydrogen peroxide [6] |
| --- | --- | --- | --- | --- | --- | --- | --- |
|  | Cc1cn([C@H]2C[C@H](N=[N+]=[N-])[C@@H](CO)O2)c(=O)[nH]c1=O [AZT] | failed to inhibit | failed to inhibit | failed to antagonize |  |  |  |
|  | COC(=O)[C@@H](N)CCCNC(=N)N[N+](=O)[O-] [L-NAME] |  | failed to inhibit | failed to antagonize | failed to modify |  |  |
| no catalytic activity is observed | [Cl-].[Cl-].[Mn+2].c1cc2nc(c1)CN[C@@H]1CCCC[C@H]1NCCN[C@@H]1CCCC[C@H]1NC2 [M40403] |  |  |  |  | no stoichiometric reaction is observed | do not react |
